pIC50: −log10 of the molar value. Read-outs that look alike come from different tables or passages of the source.
Experiments:
[1] = system: bovine cartilage explants; experiment: Bovine Cartilage Explant Assay (35S-GAG release, rhIL-1α stimulated; tissue culture); format: cell-based; conditions: Bos taurus, read-out: percent inhibition of extracellular matrix damage, Tissue Culture
Excerpt: A tissue culture assay was used to measure the ability of the compounds of the present invention to slow the degradation of the extracellular matrix by metalloproteinases. This assay measured the amount of ^35 S-glycosaminoglycan (^35 S-GAG) released from labeled bovine cartilage explants.
Knee joints from a 1 to 3 week old calf were obtained immediately after sacrifice from the Abattoir and then transported on ice. The intact joints were washed well with tap water and soaked in 50% (v/v) Povidine iodine solution, obtained from Burre National, Inc., Baltimore, Md. All subsequent steps were performed in a laminar flow tissue culture hood using standard sterile technique. The joint was immobilized in a shank holder and the joint capsule was cut open to expose the articular cartilage. Cartilage explant plugs, approximately 15 mg wet weight, were removed from the flat articulating surfaces in the lower-most region of the knee joint using a sterile steel cork-borer and collected in a 250 mL roller bottle containing about 100 mL fresh Delbecco's minimum essential medium (DMEM), obtained from Gibco BRC, Life Technologies, Gaithersburg, Md., containing 4.5 g/1 (D)-glucose and (L)-glutamine, without sodium pyruvate. The fresh media also contained enough Hepes buffer and sodium bicarbonate such that the pH was about 7.4. The media was then further supplemented just before use with 100 units Penicillin, 100 μg Streptomycin, and 50 μg (L)-ascorbic acid per mL of medium.
Once collected, the explant plugs were washed four times with 50 mL fresh DMEM. The plugs were then placed in the incubator for a minimum of 1 hour to equilibrate, before proceeding to make disks from the articulating surface of each plug. A 1 mm thick disk was sliced from individual plugs from the end that was the articulating surface of the joint. The plug was held steady in the sterile template (4 mm diameter×1.5 mm deep) using sterile forceps. A scalpel blade was used to carefully slice off the disk. Only the superficial articulating surface responded well in culture.
Individual disks obtained were transferred to a tissue culture flask containing about 100 mL fresh media. The flask containing the disks was placed in an incubator at 37° C. (with 5% CO2, 95% air) and allowed to equilibrate overnight and at least one additional day before labeling. When ready to label, the old media was replaced with 50 mL fresh media containing about 500 μCi ^35 S-Sodium Sulfate. The plugs were labeled in bulk for about 48 hours. The next morning, the "hot" media was removed and replaced with fresh "cold" media. The disks were again allowed to equilibrate overnight before being used for actual experiments.
The media in which the disks were stored was changed immediately prior to performing the assay. The disks were then returned to the incubator until the test media and the two control media had been prepared. The test media consisted of a bile acid or bile acid derivative (50 μM) being tested for its ability to inhibit extracellular matrix degradation and concomitant recombinant human Interleukin rhIL-1α (5 ng/mL) in fresh DMEM solution. The control media were identical to the test media, except that the first control media lacked rhIL-1α and the second control media lacked an inhibitor, i.e. a bile acid or bile acid derivative. 250 μL of each of the test and control media were transferred to separate 96-well TC plates. Flamed forceps were used to transfer a disk from the incubator to each 96-well TC plates that had been filled with either the test media or one of the two control media.
The TC plates were then placed in the incubator and cultured for 3-4 days (initial incubation with rhIL-1α alpha takes at least 3 days to stimulate endogenous metalloproteinases). A 50 μL aliquot of media from each TC plate was saved and counted. The rest of the media was removed with a suction device.
The cartilage disks from each TC plate were also saved for counting. […]

gelatinase (72 (Kd)) = molecular target: T1, gelatinase (72 (Kd) (Homo sapiens, UniProt P08253)); experiment: Assay of Gelatinase Inhibition Activity (72 Kd gelatinase); format: biochemical; conditions: 60 minutes at 37° C.; for inhibition at 10 µM: at 10 μM of compound, read-out: percent inhibition of gelatinase
T1 sequence (P08253 110-660): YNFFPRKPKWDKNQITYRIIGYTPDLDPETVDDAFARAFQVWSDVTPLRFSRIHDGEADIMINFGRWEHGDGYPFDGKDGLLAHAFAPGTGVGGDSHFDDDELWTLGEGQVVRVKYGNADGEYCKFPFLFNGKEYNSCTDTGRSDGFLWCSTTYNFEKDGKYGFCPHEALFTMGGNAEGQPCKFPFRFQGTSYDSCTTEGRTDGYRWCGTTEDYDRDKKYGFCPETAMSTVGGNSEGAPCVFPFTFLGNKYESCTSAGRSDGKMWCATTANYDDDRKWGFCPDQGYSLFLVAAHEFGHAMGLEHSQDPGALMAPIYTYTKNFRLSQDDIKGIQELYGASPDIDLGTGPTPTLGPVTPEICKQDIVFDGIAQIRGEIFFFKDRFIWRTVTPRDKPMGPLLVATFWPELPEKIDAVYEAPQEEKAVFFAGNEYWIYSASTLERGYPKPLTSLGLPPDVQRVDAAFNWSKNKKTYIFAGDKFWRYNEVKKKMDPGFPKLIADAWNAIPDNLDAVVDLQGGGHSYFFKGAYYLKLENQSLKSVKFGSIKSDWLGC
Method: Stromelysin was first activated by trypsin. This was done by preparing a reaction mixture in B-150 (B-150 consists of 150 mM NaCl, 20 mM Tris at pH 7.8 and 0.02% sodium azide) containing a final concentration of 4 μg/mL trypsin, 1.48 μg/mL of stromelysin, and 3.15 mM CaCl2. The reaction was incubated for 30 minutes at 37° C. and then quenched by adding soybean trypsin inhibitor to a final concentration of 43.6 μg/mL. ZnCl2 was added to the reaction mixture for a total concentration of 0.24 μM.
Following preparation of the solution of activated stromelysin, assay solutions were prepared for each inhibitor being tested. A control was also prepared. First, […] of activated stromelysin (about 45 μL from the solution of activated stromelysin) were aliquotted per assay tube. A 2.5 mM solution in 100% dimethyl sulfoxide (DMSO) was prepared for each inhibitor being tested and 1 μL from each inhibitor solution was added to one of the assay tubes. In addition, 1 μL of 100% DMSO was added to the control assay tube. All assay tubes were then pre-incubated for 5 minutes.
5 μL of a previously prepared 50 μM solution of substrate in 15% DMSO were added to each assay tube. The substrate was a methoxycumarin developed by Knight et al. FEBS Lett. 296:263-66 (1992). The tubes were then incubated for 60 minutes, at which time the reaction was stopped with the addition of 750 μL of 0.1M NaAc pH 4.0 buffer.
Substrate hydrolysis was assessed by fluorescence using a slit width of 10:10, excitation at 328 nm and emission at 393 nm. The results of these assays are listed in Table I as percent inhibition at 10 μM of the bile acid provided compound tested or as the IC50.
The assay procedure for gelatinase (72 (Kd) was the same as described in Example 13 for stromelysin except that the trypsin activation was performed for 60 minutes. In addition, the incubation of the assay tubes at 37° C. was for 60 minutes, and the final enzyme concentration was 3 nm. The results of these assays are listed in Table I as percent inhibition at 10 μM of the compound tested.

[2] = at 50 μM, rhIL-1α 5 ng/mL, 3-4 days

Row | SMILES | inhibition at 50 µM [1, 2] | inhibition at 50 µM [1] | pIC50 (gelatinase (72 (Kd))) | inhibition at 10 µM (gelatinase (72 (Kd)))
1 | C[C@H](CCC(=O)O)[C@H]1CC[C@H]2[C@@H]3CC[C@@H]4C[C@H](O)CC[C@]4(C)[C@H]3CC[C@]12C [Compound 1, Lithocholic acid, reference compound] | 68% |  |  | 
2 | C[C@H](CCC(=O)NCCC[N+](C)(C)CCCS(=O)(=O)[O-])[C@H]1CC[C@H]2[C@@H]3[C@H](O)C[C@@H]4C[C@H](O)CC[C@]4(C)[C@H]3C[C@H](O)[C@]12C [Compound 8, 3-[(3-cholamidopropyl)dimethylammonio)-1-propanesulfonate, reference compound] |  | -120% |  | 
3 | CC(C)C[C@H](NC(=O)CC[C@@H](C)[C@H]1CC[C@H]2[C@@H]3CC[C@@H]4C[C@H](O)CC[C@]4(C)[C@H]3CC[C@]12C)C(=O)NO [Compound 9, Lithocholyl-(L)-Leucine Hydroxamic Acid] | 84% |  | 6.52 | 
4 | CC(C)C[C@H](NC(=O)CC[C@@H](C)[C@H]1CC[C@H]2[C@@H]3[C@H](O)C[C@@H]4C[C@H](O)CC[C@]4(C)[C@H]3CC[C@]12C)C(=O)NO [Compound 10, Chenodeoxycholyl-(L)-Leucine Hydroxamic Acid] | 85% |  |  | 27%
5 | C[C@H](CCC(=O)NOCc1ccccc1)[C@H]1CC[C@H]2[C@@H]3[C@H](O)C[C@@H]4C[C@H](O)CC[C@]4(C)[C@H]3CC[C@]12C [Compound 12, Chenodeoxycholyl-O-Benzylhyroxamate] | 6% |  |  | 
6 | C[C@H](CCC(=O)NO)[C@H]1CC[C@H]2[C@@H]3CC[C@@H]4C[C@H](O)CC[C@]4(C)[C@H]3CC[C@]12C [Compound 13, Lithocholylhydroxamic Acid] | 44% |  | 5.10 | 
7 | C[C@H](CCC(=O)N[C@@H](Cc1ccccc1)C(=O)NO)[C@H]1CC[C@H]2[C@@H]3CC[C@@H]4C[C@H](O)CC[C@]4(C)[C@H]3CC[C@]12C [Compound 15, Lithocholyl-(L)-Phenylalanine Hydroxamic Acid] | 54% |  |  | 47%
8 | C[C@H](CCC(=O)N[C@@H](Cc1ccccc1)C(=O)NO)[C@H]1CC[C@H]2[C@@H]3[C@H](O)C[C@@H]4C[C@H](O)CC[C@]4(C)[C@H]3CC[C@]12C [Compound 16, Chenodeoxycholyl-(L)-Phenylalanine Hydroxamic Acid] | 94% |  |  | 23%
9 | CCOC(=O)[C@H](CS)NC(=O)[C@H](Cc1ccccc1)NC(=O)CC[C@@H](C)[C@H]1CC[C@H]2[C@@H]3CC[C@@H]4C[C@H](O)CC[C@]4(C)[C@H]3CC[C@]12C [Compound 19, Lithocholyl-(L)-Phenylalanyl-(L)-Cysteine Ethyl Ester] | 32% |  |  | 47%
10 | C[C@H](CCC(=O)N[C@@H](Cc1ccccc1)C(=O)NC1CCSC1=O)[C@H]1CC[C@H]2[C@@H]3CC[C@@H]4C[C@H](O)CC[C@]4(C)[C@H]3CC[C@]12C (some centres unmarked) [Compound 20, Lithocholyl-Phenylalanylhomocysteine Thiolactone] | -13% |  |  | 30%
